According to ChEMBL document CHEMBL6121063, “Identification of a Potent and Selective CDK9 Degrader as a Targeted Therapeutic Option for the Treatment of Small-Cell Lung Cancer” (J Med Chem, 2025):
Active and inactive are the calls of the source. The rule behind the calls is not given here.

Key:
DMS-53 = test: Inhibition of cell invasion in human DMS-53 cells assessed as decrease in number of cells passing through upper chamber at 2to 4 nM incubated for 48 hrs by crystal violet staining based microscopic analysis; type: functional
NCI-H69 [1] = test: Downregulation of CDK9 protein level in human NCI-H69 cells at 1 to 10 nM incubated for 8 hrs by Western blot analysis; type: functional, cell-based; details: dose 1-10 nM
[2] = target: T1, Protein cereblon/Cyclin-dependent kinase 9 (Homo sapiens, UniProt P50750+Q96SW2); test: PROTAC activity at CRBN/CDK9 in human NCI-H69 cells assessed as induction of CDK9 degradation at 10 nM by Western blot analysis relative to control; type: cell-based
NCI-H69 [3] = test: Induction of apoptosis in human NCI-H69 cells assessed as increase in p53 level incubated for 36 hrs by Western blot analysis; type: functional, cell-based
[4] = target: Cyclin-dependent kinase 2/cyclin E1 (Homo sapiens) (UniProt P24864+P24941); details: dose 10.0 nM
[5] = target: T1, Protein cereblon/Cyclin-dependent kinase 9; test: PROTAC activity at CRBN/CDK9 in human NCI-H69 cells assessed as induction of CDK9 degradation by measuring reduction in half-life incubated upto 24 hrs in presence of cycloheximide by Western blot analysis; type: cell-based
NCI-H69 [6] = test: Induction of apoptosis in human NCI-H69 cells assessed as increase in cleaved caspase-3 level incubated for 36 hrs by Western blot analysis; type: functional, cell-based
[7] = target: Cyclin-dependent kinase 1/cyclin B1 (Homo sapiens) (UniProt P06493+P14635); test: Inhibition of CDK1/cyclin B1 (unknown origin) at 10 nM relative to control; type: protein-complex assay
[8] = target: CDK6/cyclin D1 (Homo sapiens) (UniProt P24385+Q00534); test: Inhibition of CDK6/cyclin D1 (unknown origin) at 10 nM relative to control; type: protein-complex assay
NCI-H446 [9] = test: Antitumor activity against human NCI-H446 cells expressing luciferase-GFP xenografted in female NU-NU mouse model assessed as decrease in tumor burden at 12.5 to 25 mg/kg, po administered for 19 days; type: functional, organism-based; details: dose 12.5-25 mg/kg, time 19.0 day
NCI-H446 [10] = test: Antitumor activity against human NCI-H446 cells xenografted in female NU-NU mouse model assessed as decrease in Ki67 level in tumor at 12.5 to 25 mg/kg, po administered once daily for 15 days by immunohistochemical staining based analysis; type: functional, organism-based; details: dose 12.5-25 mg/kg, time 15.0 day
[11] = target: T1, Protein cereblon/Cyclin-dependent kinase 9; test: PROTAC activity at CRBN/CDK9 in human NCI-H69 cells assessed as induction of CDK9 degradation preincubated with thalidomide for 2 hrs followed by compound addition and measured after 3 hrs by Western blot analysis; type: cell-based
NCI-H446 [12] = test: Cell cycle arrest in human NCI-H446 cells assessed as increase in G1 phase population incubated for 36 hrs by PI staining based flow cytometric analysis; type: functional; details: dose 0.5-2 nM
NCI-H69 [13] = test: Induction of apoptosis in human NCI-H69 cells assessed as decrease in MCL-1 expression incubated for 36 hrs by Western blot analysis; type: functional, cell-based
[14] = target: CDK6/cyclin D3 (Homo sapiens) (UniProt P30281+Q00534); test: Inhibition of CDK6/cyclin D3 (unknown origin) at 10 nM relative to control; type: protein-complex assay
[15] = system: Small cell lung cancer cell line; test: Antitumor activity against LDI-0025-362145 patient derived Small cell lung cancer cell line xenografted in BALB/c nude mouse assessed as reduction in tumor growth at 25 mg/kg, po administered once daily for 7 days; type: functional, organism-based; details: Homo sapiens, time 7.0 day
[16] = target: T1, Protein cereblon/Cyclin-dependent kinase 9; test: PROTAC activity at CRBN/CDK9 in human NCI-H446 cells assessed as increase in CDK9 ubiquitination preincubated with MG132 for 2 hrs followed by compound addition and measured after 3 hrs by co-immunoprecipitation analysis; type: cell-based
[17] = target: Cyclin-dependent kinase 13/Cyclin-K (Homo sapiens) (UniProt Q14004+O75909); test: Inhibition of CDK13/Cyclin K (unknown origin) at 10 nM relative to control; type: protein-complex assay
[18] = target: T1, Protein cereblon/Cyclin-dependent kinase 9; test: PROTAC activity at CRBN/CDK9 in human NCI-H446 cells assessed as induction of CDK9 degradation by measuring reduction in half-life incubated upto 24 hrs in presence of cycloheximide by Western blot analysis; type: cell-based
[19] = target: CDK3/Cyclin E (Homo sapiens) (UniProt P24864+Q00526); test: Inhibition of CDK3/cyclin E1 (unknown origin) at 10 nM relative to control; type: protein-complex assay
NCI-H69 [20] = test: Induction of apoptosis in human NCI-H69 cells at 1 nM by microscopic analysis; type: functional, cell-based
[21] = target: T1, Protein cereblon/Cyclin-dependent kinase 9; test: In vivo PROTAC activity at CRBN/CDK9 in female NU/NU mouse model xenografted with human NCI-H446 cells assessed as decrease in CDK9 expression in tumor at 12.5 to 25 mg/kg, po administered once daily for 15 days by immunohistochemical staining based analysis; type: functional, organism-based; details: dose 12.5-25 mg/kg, time 15.0 day
[22] = target: T1, Protein cereblon/Cyclin-dependent kinase 9; test: PROTAC activity at CRBN/CDK9 in human NCI-H69 cells assessed as induction of CDK9 degradation preincubated with AT-7519 for 2 hrs followed by compound addition and measured after 3 hrs by Western blot analysis; type: cell-based
[23] = target: T1, Protein cereblon/Cyclin-dependent kinase 9; test: PROTAC activity at CRBN/CDK9 in human NCI-H69 cells assessed as induction of CDK9 degradation preincubated with MG132 for 2 hrs followed by compound addition and measured after 3 hrs by Western blot analysis; type: cell-based
NCI-H69 [24] = test: Cell cycle arrest in human NCI-H69 cells assessed as increase in G1 phase population incubated for 36 hrs by PI staining based flow cytometric analysis; type: functional; details: dose 0.5-4 nM
DMS-114 [25] = test: Inhibition of cell invasion in human DMS-114 cells assessed as decrease in number of cells passing through upper chamber at 2to 4 nM incubated for 48 hrs by crystal violet staining based microscopic analysis; type: functional
[26] = target: Cyclin-dependent kinase 4/cyclin D1 (Homo sapiens) (UniProt P11802+P24385); test: Inhibition of CDK4/cyclin D1 (unknown origin) at 10 nM relative to control; type: protein-complex assay
NCI-H446 [27] = test: Downregulation of CDK9 protein level in human NCI-H446 cells at 10 nM incubated for 3 hrs by quantitative proteomic analysis; type: functional, cell-based
DMS-114 [28] = test: Inhibition of colony formation in human DMS-114 cells at 2 to 4 nM incubated for 8 days by crystal violet staining based analysis; type: functional, cell-based; details: dose 2-4 nM, time 8.0 day
[29] = target: Cyclin-dependent kinase 5/CDK5 activator 1 (Homo sapiens) (UniProt Q00535+Q15078); test: Inhibition of CDK5/p35NCK (unknown origin) at 10 nM relative to control; type: protein-complex assay
[30] = target: Cyclin-Y/Cyclin-dependent kinase 16 (Homo sapiens) (UniProt Q00536+Q8ND76); details: dose 10.0 nM
[31] = target: T1, Protein cereblon/Cyclin-dependent kinase 9; test: In vivo PROTAC activity at CRBN/CDK9 in female BALB/c nude mouse xenografted with human NCI-H446 cells assessed as induction of CDK9 degradation in tumor at 25 mg/kg, po measured after 24 hrs by Western blot analysis; type: functional, organism-based

T1 sequence (P50750 whole entry, looked up): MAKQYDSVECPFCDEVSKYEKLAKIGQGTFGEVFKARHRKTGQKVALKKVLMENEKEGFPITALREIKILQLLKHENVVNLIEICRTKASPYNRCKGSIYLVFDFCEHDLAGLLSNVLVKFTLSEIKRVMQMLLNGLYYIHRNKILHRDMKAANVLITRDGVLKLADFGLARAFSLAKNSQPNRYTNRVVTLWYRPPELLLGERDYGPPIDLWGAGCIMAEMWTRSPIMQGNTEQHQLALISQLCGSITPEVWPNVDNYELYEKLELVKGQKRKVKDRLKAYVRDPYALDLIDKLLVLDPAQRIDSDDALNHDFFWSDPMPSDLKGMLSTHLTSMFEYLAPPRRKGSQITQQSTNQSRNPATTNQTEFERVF
T1 sequence (Q96SW2 whole entry, looked up): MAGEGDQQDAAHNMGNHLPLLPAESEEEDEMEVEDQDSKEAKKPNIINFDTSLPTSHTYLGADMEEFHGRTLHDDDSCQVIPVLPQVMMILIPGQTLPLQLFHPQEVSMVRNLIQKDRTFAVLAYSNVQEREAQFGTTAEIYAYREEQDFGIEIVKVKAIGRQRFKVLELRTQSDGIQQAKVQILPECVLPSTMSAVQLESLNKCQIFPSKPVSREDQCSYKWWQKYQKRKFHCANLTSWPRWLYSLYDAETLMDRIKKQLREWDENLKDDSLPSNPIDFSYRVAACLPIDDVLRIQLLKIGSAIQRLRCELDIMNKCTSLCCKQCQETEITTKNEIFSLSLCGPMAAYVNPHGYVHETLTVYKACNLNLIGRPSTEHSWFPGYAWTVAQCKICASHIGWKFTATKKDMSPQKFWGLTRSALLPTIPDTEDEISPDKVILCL
Chain of Cyclin-dependent kinase 1/cyclin B1 (Homo sapiens) (P06493 whole entry, looked up): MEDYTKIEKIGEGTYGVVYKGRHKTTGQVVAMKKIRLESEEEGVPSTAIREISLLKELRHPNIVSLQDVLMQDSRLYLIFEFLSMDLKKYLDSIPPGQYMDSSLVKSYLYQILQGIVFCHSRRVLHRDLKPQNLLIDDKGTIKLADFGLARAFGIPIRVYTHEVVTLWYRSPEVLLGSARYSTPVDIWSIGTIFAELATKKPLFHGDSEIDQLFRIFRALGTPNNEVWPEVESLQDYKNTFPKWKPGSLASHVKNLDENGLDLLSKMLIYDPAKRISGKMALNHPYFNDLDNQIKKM
Chain of Cyclin-dependent kinase 1/cyclin B1 (Homo sapiens) (P14635 whole entry, looked up): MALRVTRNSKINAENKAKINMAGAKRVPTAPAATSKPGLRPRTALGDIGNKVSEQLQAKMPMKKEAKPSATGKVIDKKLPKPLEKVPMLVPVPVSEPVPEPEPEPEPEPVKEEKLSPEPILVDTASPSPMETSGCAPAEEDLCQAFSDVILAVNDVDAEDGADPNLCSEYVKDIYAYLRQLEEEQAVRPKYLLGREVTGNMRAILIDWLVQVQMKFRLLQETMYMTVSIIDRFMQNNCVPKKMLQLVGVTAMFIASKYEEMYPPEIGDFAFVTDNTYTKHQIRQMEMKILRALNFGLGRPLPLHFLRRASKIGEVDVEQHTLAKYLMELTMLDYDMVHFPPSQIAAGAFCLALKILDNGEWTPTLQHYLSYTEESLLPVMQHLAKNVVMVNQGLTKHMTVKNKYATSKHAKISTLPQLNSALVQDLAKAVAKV
Chain of Cyclin-dependent kinase 13/Cyclin-K (Homo sapiens) (O75909 whole entry, looked up): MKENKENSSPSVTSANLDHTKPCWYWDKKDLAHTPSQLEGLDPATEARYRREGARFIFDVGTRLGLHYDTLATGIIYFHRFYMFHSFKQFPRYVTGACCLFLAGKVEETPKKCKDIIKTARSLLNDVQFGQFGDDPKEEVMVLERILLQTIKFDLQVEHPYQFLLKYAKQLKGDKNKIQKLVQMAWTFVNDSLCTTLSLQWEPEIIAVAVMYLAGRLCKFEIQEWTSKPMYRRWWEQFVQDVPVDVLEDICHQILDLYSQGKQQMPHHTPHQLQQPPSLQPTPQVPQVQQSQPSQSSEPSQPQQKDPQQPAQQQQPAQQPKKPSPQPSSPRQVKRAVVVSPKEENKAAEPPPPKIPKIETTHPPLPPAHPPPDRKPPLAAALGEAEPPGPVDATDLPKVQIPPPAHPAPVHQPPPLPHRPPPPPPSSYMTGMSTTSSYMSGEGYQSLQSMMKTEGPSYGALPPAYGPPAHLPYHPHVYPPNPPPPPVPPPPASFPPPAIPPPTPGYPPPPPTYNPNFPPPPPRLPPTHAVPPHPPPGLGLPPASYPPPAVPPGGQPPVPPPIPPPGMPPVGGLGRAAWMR
Chain of Cyclin-dependent kinase 13/Cyclin-K (Homo sapiens) (Q14004 whole entry, looked up): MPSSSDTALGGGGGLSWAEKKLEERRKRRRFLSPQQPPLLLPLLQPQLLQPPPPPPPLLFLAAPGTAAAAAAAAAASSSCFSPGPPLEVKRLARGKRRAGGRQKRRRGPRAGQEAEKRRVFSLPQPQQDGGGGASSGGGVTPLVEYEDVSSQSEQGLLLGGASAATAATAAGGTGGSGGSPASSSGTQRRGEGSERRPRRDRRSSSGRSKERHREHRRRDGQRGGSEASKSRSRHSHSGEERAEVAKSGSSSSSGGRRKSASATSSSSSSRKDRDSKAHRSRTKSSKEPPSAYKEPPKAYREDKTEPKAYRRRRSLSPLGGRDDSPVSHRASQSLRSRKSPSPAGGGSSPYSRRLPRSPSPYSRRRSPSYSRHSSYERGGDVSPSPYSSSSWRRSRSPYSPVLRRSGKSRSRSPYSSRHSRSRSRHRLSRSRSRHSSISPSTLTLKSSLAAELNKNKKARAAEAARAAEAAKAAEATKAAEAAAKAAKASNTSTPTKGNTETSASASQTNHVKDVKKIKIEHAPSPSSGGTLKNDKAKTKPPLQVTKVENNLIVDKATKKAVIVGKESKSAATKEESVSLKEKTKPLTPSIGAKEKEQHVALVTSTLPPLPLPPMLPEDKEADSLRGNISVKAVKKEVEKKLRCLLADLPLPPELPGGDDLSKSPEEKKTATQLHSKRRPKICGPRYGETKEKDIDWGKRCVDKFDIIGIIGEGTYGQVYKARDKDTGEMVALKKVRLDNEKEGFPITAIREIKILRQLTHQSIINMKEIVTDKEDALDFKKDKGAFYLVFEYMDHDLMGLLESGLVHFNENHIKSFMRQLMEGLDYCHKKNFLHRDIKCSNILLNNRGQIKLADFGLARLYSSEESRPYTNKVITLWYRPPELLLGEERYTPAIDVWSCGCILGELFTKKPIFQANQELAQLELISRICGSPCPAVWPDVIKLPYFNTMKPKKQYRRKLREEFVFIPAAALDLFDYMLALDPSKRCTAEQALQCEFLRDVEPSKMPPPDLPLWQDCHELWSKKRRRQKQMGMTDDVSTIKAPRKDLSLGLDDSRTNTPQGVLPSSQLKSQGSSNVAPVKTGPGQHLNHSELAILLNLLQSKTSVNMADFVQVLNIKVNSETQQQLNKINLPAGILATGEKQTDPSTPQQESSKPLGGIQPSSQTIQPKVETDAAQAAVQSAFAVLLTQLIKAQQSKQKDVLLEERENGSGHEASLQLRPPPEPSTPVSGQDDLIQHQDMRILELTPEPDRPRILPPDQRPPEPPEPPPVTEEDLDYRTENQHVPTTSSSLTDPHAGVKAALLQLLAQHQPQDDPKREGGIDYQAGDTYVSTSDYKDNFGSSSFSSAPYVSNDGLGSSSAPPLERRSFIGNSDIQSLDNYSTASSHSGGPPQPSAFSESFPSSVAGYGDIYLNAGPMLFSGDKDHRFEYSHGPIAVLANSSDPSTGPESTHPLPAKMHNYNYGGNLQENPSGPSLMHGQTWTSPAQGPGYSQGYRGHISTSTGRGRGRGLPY
Chain of CDK3/Cyclin E (Homo sapiens) (P24864 whole entry, looked up): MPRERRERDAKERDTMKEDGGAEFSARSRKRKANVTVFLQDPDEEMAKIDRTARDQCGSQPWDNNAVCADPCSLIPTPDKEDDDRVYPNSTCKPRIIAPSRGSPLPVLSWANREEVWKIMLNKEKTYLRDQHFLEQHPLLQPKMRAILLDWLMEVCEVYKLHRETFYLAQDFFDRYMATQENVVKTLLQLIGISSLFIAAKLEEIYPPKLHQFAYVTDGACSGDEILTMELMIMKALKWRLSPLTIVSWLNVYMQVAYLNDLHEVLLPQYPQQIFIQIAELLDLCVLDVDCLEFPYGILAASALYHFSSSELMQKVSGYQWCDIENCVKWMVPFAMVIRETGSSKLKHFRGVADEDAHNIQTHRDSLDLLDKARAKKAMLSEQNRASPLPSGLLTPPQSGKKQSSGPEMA
Chain of CDK3/Cyclin E (Homo sapiens) (Q00526 whole entry, looked up): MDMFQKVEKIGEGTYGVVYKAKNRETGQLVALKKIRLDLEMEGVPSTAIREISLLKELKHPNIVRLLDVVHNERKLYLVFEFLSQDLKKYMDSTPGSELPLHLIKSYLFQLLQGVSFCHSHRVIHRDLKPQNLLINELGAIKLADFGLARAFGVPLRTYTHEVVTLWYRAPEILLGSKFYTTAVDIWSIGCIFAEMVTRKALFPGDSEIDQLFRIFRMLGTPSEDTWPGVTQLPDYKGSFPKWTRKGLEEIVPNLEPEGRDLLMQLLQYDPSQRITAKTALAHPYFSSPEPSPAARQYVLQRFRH
Chain of Cyclin-dependent kinase 5/CDK5 activator 1 (Homo sapiens) (Q00535 whole entry): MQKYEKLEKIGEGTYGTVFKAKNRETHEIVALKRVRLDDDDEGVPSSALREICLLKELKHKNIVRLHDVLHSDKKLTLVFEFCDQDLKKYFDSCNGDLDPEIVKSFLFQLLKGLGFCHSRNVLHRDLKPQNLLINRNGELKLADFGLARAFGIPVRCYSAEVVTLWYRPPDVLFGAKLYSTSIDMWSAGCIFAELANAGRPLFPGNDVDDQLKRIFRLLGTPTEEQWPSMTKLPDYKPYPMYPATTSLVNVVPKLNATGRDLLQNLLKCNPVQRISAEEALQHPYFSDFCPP
Chain of Cyclin-dependent kinase 5/CDK5 activator 1 (Homo sapiens) (Q15078 99-307 partner limits assumed): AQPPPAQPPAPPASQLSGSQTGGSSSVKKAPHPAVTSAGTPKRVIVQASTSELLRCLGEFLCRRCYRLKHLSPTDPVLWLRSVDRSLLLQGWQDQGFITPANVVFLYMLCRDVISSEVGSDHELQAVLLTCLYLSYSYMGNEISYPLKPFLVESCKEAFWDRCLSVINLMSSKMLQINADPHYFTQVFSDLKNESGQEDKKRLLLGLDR

Activity [2]: 91.2% | inhibition [4]: 35% | Activity [5]: Active | inhibition [7]: 46% | inhibition [8]: 34% | Activity [11]: inactive | inhibition [14]: 15% | Activity [16]: Active | inhibition [17]: 56% | Activity [18]: Active | inhibition [19]: 31% | Activity [21]: Active | Activity [22]: inactive | Activity [23]: inactive | inhibition [26]: 37% | inhibition [29]: 45% | inhibition [30]: 38%
Structure (SMILES): O=C1CCC(Nc2cccc(N3CCN(CC4CCN(CC(=O)N5CCC(NC(=O)c6n[nH]cc6NC(=O)c6c(Cl)cccc6Cl)CC5)CC4)CC3)c2)C(=O)N1 (configuration not stated)
inhibition (DMS-53): Active | Activity (NCI-H69 [1]): Active | Activity (NCI-H69 [3]): Dose-dependent-effect | Activity (NCI-H69 [6]): Dose-dependent-effect | Activity (NCI-H446 [9]): Active | Activity (NCI-H446 [10]): Active | Activity (NCI-H446 [12]): Dose-dependent-effect | Activity (NCI-H69 [13]): Dose-dependent-effect | Activity [15]: Active | Activity (NCI-H69 [20]): Active | Activity (NCI-H69 [24]): Dose-dependent-effect | inhibition (DMS-114 [25]): Active | Activity (NCI-H446 [27]): Active | inhibition (DMS-114 [28]): Active | Activity [31]: Not active; Very Short Self-Renewal Period For Cdk9 Observed
